The subject of one assay is ATXN3 pre-mRNA. The assay can be described thus: RT-qPCR Assay to Quantify Exon 4 Skipping in ATXN3 pre-mRNA in Cells. In kind it is cell-based. Particulars: cells incubated with compound 24 h, 7-point concentration curve, GAPDH control. The method, then: RT-qPCR Assay to Quantify Exon 4 Skipping in ATXN3 pre-mRNA in Cells Test compounds were serially diluted 3.16-fold in 100% DMSO to generate a 7-point concentration curve. Aliquots of 0.5 μL of diluted compounds were transferred to a 96-well flat bottom plate by a liquid handler. An aliquot of 0.5 μL DMSO was also transferred to separate wells and used as controls. Duplicate samples were set up for each compound concentration and for the DMSO control.
Cells were thawed and incubated in cell culture media (DMEM, 10% FBS, and 1% antibiotic cocktail) for 72 h. Cells were trypsinized, counted, and re-suspended to a concentration of 100,000 cells/mL in cell culture media. A 100 μL aliquot of the cell suspensions were plated at 10,000 cells per well in the compound containing 96 well microtiter plate and incubated for in a cell culture incubator (37° C., 5% CO2, 100% relative humidity).
After 24 h, media was aspirated from the cells and 50 μL of the RCL2 lysis buffer (10 mM Tris-HCL pH 7.4, 150 mM NaCl, 0.33% IGEPAL® CA-630) was added to each well and incubated at room temperature for 1 min. Chilled nuclease free water (50 μL per well) was added and the plates were immediately transferred on ice. After 1 min on ice, plates were frozen at −80° C. overnight.
Preparation of RT-qPCR Reaction Mixture:
An aliquot of 2 μL/well of the cell lysates was transferred using the liquid handler to the Armadillo 384-Well PCR plate containing 8 μL/well of the RT-qPCR reaction mixture that was prepared as detailed above. The plates were then sealed with MicroAmp™ Optical Adhesive Film followed by spinning down for 1 min and placed in the CFX384 thermocycler (BioRad).
The RT-qPCR was carried out at the following temperatures for the indicated time: • Step 1: 48° C. (30 min) • Step 2: 95° C. (10 min) • Step 3: 95° C. (15 sec) • Step 4: 60° C. (1 min); then, repeated Steps 3 and 4 for a total of 40 cycles.
The percent exon 4 skipping was calculated for each dose of compound treatment using Equations 1 and 2.
Data were fit to a dose response curve and the IC50 was interpolated using XLfit® statistical and curve fitting package.
An IC50 value between >2.0 μM and ≤3.0 μM is indicated by one star (*). […] IC50 value between >0.5 μM and ≤1.0 μM is indicated by four stars (****). An IC50 value ≤0.5 μM is indicated by five stars (*****).
For orientation: In qPCR the cycle at which signal appears reflects the starting amount.

The test system of assay [1] is Total ATXN3 (tATXN3) protein. The assay can be described thus: Endogenous Total ATXN3 (tATXN3) Protein Assay (MSD immunoassay of cell lysates). Type of assay: cell-based. Particulars: cells incubated with compound 48 h; 7-point concentration curve; MSD detection in cell lysate. On the procedure: Endogenous Total ATXN3 (tATXN3) Protein Assay
Meso Scale Discovery (MSD) 96-well or 384-well plates were coated overnight at 4° C. with Ataxin 3 mouse monoclonal antibody (Invitrogen, MA3-082) at a concentration of 0.5 μg/mL in PBS (30 μL per well). Plates were then washed three times with 300 μL wash buffer (0.05% TWEEN®-20, polyethylene glycol sorbitan monolaurate, in PBS) and blocked (Meso Scale Diagnostics, R93BA-1; 5% BSA in PBS) for 2 h at room temperature with rotational shaking and then washed three times with wash buffer.
Test compounds were serially diluted 3.16-fold in 100% DMSO to generate a 7-point concentration curve. Aliquots of 0.5 μL of diluted compounds were transferred to a 96-well flat bottom plate by a liquid handler. An aliquot of 0.5 μL DMSO was also transferred to separate wells and used as controls. Duplicate samples were set up for each compound concentration and for the DMSO control.
Cells were thawed and incubated in cell culture media (DMEM, 10% FBS, and 1% antibiotic cocktail) for 72 h. Cells were trypsinized, counted, and re-suspended to a concentration of 100,000 cells/mL in cell culture media. A 100 μL aliquot of the cell suspensions were plated at 10,000 cells per well in the compound containing 96 well microtiter plate and incubated for in a cell culture incubator (37° C., 5% CO2, 100% relative humidity). After 48 h, the medium was removed and 50-100 μL of lysis buffer (Meso Scale Diagnostics, R60TX-2) containing 1× halt protease inhibitor cocktail of (Thermo Scientific, Halt™ Protease Inhibitor Cocktail, 78430) per well was added to cells to provide a “cell lysate”. The plate was placed on a shaker at 4° C. for 30 minutes, then stored at −80° C.
Cell lysate samples (25 μL) were transferred to the antibody-coated MSD plate and incubated overnight at 4° C. After removal of the lysates, the plate was washed three times with wash buffer, and 25 μL of Ataxin 3 recombinant rabbit monoclonal antibody (Invitrogen, #702788) secondary antibody (diluted to 0.25 μg/mL in 0.05% TWEEN®-20 in blocking buffer) was added to each well and incubated with shaking for 1-2 h at room temperature. Following incubation with the secondary antibody, the wells were rinsed with wash buffer and then […] Anti Rabbit Antibody Goat SULFO-TAG Labeled (Meso Scale Diagnostics, R32AB-1) detecting antibody (diluted to 0.25 μg/mL in 0.05% TWEEN®-20 in blocking buffer) was added to each well and incubated with shaking for 1 h at room temperature. After rinsing three times with wash buffer, 150 μL of Read Buffer T with surfactant (tris-based buffer containing tripropylamine, Meso Scale Diagnostics, R92TC-1) were added to each empty well, and the plate was imaged on a SI 6000 imager (MSD) according to manufacturers' instructions provided for 96- or 384-well plates.

Each structure is given as a SMILES string. Some results are limits rather than exact numbers.

The term IC50 denotes the concentration that gives 50% inhibition. Take `Cc1c(C[C@@H](N)CC(C)C)sc2c(NCc3cccs3)cc(Cl)nc12` [Cpd 61, 2-[(2S)-2-amino-4-methylpentyl]-5-chloro-3-methyl-N-[(thiophen-2-yl)methyl]thieno[3,2-b]pyridin-7-amine]: the IC50 (in the assay on ATXN3 pre-mRNA; in assay [1]) was at most 500 nM each time.
As to `N[C@H](CF)Cc1sc2c(NCc3cccs3)cc(Cl)nc2c1Br` [Cpd 63, 2-[(2S)-2-amino-3-fluoropropyl]-3-bromo-5-chloro-N-[(thiophen-2-yl)methyl]thieno[3,2-b]pyridin-7-amine], the IC50 was 1500 to 2000 nM in the assay with ATXN3 pre-mRNA and over 2000 nM in assay [1].
In the same order, the values of `N[C@@H](COC(F)(F)F)Cc1sc2c(NCc3nccs3)cc(Cl)nc2c1Br` [Cpd 64, 2-[(2R)-2-amino-3-(trifluoromethoxy)propyl]-3-bromo-5-chloro-N-[(1,3-thiazol-2-yl)methyl]thieno[3,2-b]pyridin-7-amine] are 500 to 1000 nM and 500 to 1000 nM.
In the same order, the values of `CC[C@H](N)Cc1sc2c(NCc3cccs3)cc(Cl)nc2c1Br` [Cpd 73, 2-[(2S)-2-aminobutyl]-3-bromo-5-chloro-N-[(thiophen-2-yl)methyl]thieno[3,2-b]pyridin-7-amine] are at most 500 nM and at most 500 nM.
In the same order, the values of `N[C@@H](CCF)Cc1sc2c(NCc3cccs3)cc(Cl)nc2c1Br` [Cpd 74, 2-[(2S)-2-amino-4-fluorobutyl]-3-bromo-5-chloro-N-[(thiophen-2-yl)methyl]thieno[3,2-b]pyridin-7-amine] are at most 500 nM and at most 500 nM.
`N[C@@H](CF)Cc1sc2c(NCc3cccs3)cc(Cl)nc2c1Br` [Cpd 76, 2-[(2R)-2-amino-3-fluoropropyl]-3-bromo-5-chloro-N-[(thiophen-2-yl)methyl]thieno[3,2-b]pyridin-7-amine]: the IC50 (in the assay on ATXN3 pre-mRNA; in assay [1]) was at most 500 nM throughout.
`Cc1c(C[C@@H](N)CF)sc2c(NCc3ccco3)cc(Cl)nc12` [Cpd 81, 2-[(2R)-2-amino-3-fluoropropyl]-5-chloro-N-[(furan-2-yl)methyl]-3-methylthieno[3,2-b]pyridin-7-amine]: the IC50 (in the assay with ATXN3 pre-mRNA; in assay [1]) was at most 500 nM in each case.
On to `CC[C@H](N)Cc1sc2c(NCc3cccs3)cc(Cl)nc2c1Cl` [Cpd 83, 2-[(2S)-2-aminobutyl]-3,5-dichloro-N-[(thiophen-2-yl)methyl]thieno[3,2-b]pyridin-7-amine], for which the IC50 (in the assay on ATXN3 pre-mRNA; in assay [1]) was at most 500 nM throughout.
For `N[C@@H](CF)Cc1sc2c(NCc3cccs3)cc(Cl)nc2c1Cl` [Cpd 84, 2-[(2R)-2-amino-3-fluoropropyl]-3,5-dichloro-N-[(thiophen-2-yl)methyl]thieno[3,2-b]pyridin-7-amine], the IC50 (in the assay with ATXN3 pre-mRNA; in assay [1]) was at most 500 nM in each case.
With `Cc1c(C[C@@H](N)CF)sc2c(NCc3cccs3)cc(Cl)nc12` [Cpd 91, 2-[(2R)-2-amino-3-fluoropropyl]-5-chloro-3-methyl-N-[(thiophen-2-yl)methyl]thieno[3,2-b]pyridin-7-amine], the IC50 in the assay with ATXN3 pre-mRNA lay in the range of 2000 to 3000 nM; in assay [1], 1000 to 1500 nM.
In the same order, the values of `Cc1c(C[C@@H](N)CCF)sc2c(NCc3cccs3)cc(Cl)nc12` [Cpd 92, 2-[(2S)-2-amino-4-fluorobutyl]-5-chloro-3-methyl-N-[(thiophen-2-yl)methyl]thieno[3,2-b]pyridin-7-amine] are at most 500 nM and at most 500 nM.
For `N[C@@H](CCF)Cc1sc2c(NCc3ccco3)cc(Cl)nc2c1Cl` [Cpd 93, 2-[(2S)-2-amino-4-fluorobutyl]-3,5-dichloro-N-[(furan-2-yl)methyl]thieno[3,2-b]pyridin-7-amine], the IC50 (in the assay on ATXN3 pre-mRNA; in assay [1]) was at most 500 nM throughout.
For `N[C@@H](CF)Cc1sc2c(NCc3ccco3)cc(Cl)nc2c1Cl` [Cpd 94, 2-[(2R)-2-amino-3-fluoropropyl]-3,5-dichloro-N-[(furan-2-yl)methyl]thieno[3,2-b]pyridin-7-amine], the half-maximal inhibitory concentration (IC50) (in the assay on ATXN3 pre-mRNA; in assay [1]) was at most 500 nM throughout.
Turning to `Cc1c(C[C@@H](N)CCF)sc2c(NCc3ccco3)cc(Cl)nc12` [Cpd 95, 2-[(2S)-2-amino-4-fluorobutyl]-5-chloro-N-[(furan-2-yl)methyl]-3-methylthieno[3,2-b]pyridin-7-amine], the IC50 (with ATXN3 pre-mRNA; in assay [1]) was at most 500 nM each time.
Turning to `N[C@@H](CCF)Cc1sc2c(NCc3ccco3)cc(Cl)nc2c1Br` [Cpd 97, 2-[(2S)-2-amino-4-fluorobutyl]-3-bromo-5-chloro-N-[(furan-2-yl)methyl]thieno[3,2-b]pyridin-7-amine], the IC50 (in the assay with ATXN3 pre-mRNA; in assay [1]) was at most 500 nM in each case.
Take `N#CC[C@H](N)Cc1sc2c(NCc3ccco3)cc(Cl)nc2c1Br` [Cpd 103, (3S)-3-amino-4-(3-bromo-5-chloro-7-{[(furan-2-yl)methyl]amino}thieno[3,2-b]pyridin-2-yl)butanenitrile]: the IC50 (in the assay on ATXN3 pre-mRNA; in assay [1]) was at most 500 nM in each case.
As to `CSC[C@H](N)Cc1sc2c(NCc3ccco3)cc(Cl)nc2c1C` [Cpd 104, 2-[(2R)-2-amino-3-(methylsulfanyl)propyl]-5-chloro-N-[(furan-2-yl)methyl]-3-methylthieno[3,2-b]pyridin-7-amine], the IC50 (with ATXN3 pre-mRNA; in assay [1]) was at most 500 nM throughout.
For the compound `Cc1c(C[C@@H](N)CC#N)sc2c(NCc3cccs3)cc(Cl)nc12` [Cpd 105, (3S)-3-amino-4-(5-chloro-3-methyl-7-{[(thiophen-2-yl)methyl]amino}thieno[3,2-b]pyridin-2-yl)butanenitrile], the IC50 (in the assay with ATXN3 pre-mRNA; in assay [1]) was at most 500 nM throughout.
As for `N#CC[C@H](N)Cc1sc2c(NCc3cccs3)cc(Cl)nc2c1Cl` [Cpd 106, (3S)-3-amino-4-(3,5-dichloro-7-{[(thiophen-2-yl)methyl]amino}thieno[3,2-b]pyridin-2-yl)butanenitrile], the IC50 (in the assay on ATXN3 pre-mRNA; in assay [1]) was at most 500 nM in each case.
With `N[C@H](Cc1sc2c(NCc3cccs3)cc(Cl)nc2c1Br)CC(F)F` [Cpd 107, 2-[(2S)-2-amino-4,4-difluorobutyl]-3-bromo-5-chloro-N-[(thiophen-2-yl)methyl]thieno[3,2-b]pyridin-7-amine], the “IC50, exon 4 skipping in ATXN3 pre-mRNA” value in the assay on ATXN3 pre-mRNA was “inactive”. Besides, the IC50 in assay [1] lay within 1000 to 1500 nM.
As to `Cc1c(C[C@@H](N)CS(C)(=O)=O)sc2c(NCc3ccco3)cc(Cl)nc12` [Cpd 108, 2-[(2R)-2-amino-3-(methanesulfonyl)propyl]-5-chloro-N-[(furan-2-yl)methyl]-3-methylthieno[3,2-b]pyridin-7-amine], the IC50 (in the assay with ATXN3 pre-mRNA; in assay [1]) was at most 500 nM in each case.

Source of the values: patent US20240051968A1, “METHODS FOR TREATING SPINOCEREBELLAR ATAXIA TYPE 3” (PTC Therapeutics, Inc., priority 2021, published 2024).
